# According to patent US20220411367A1, “ARYLMETHYLENE HETEROCYCLIC COMPOUNDS AS KV1.3 POTASSIUM SHAKER CHANNEL BLOCKERS” (D. E. Shaw Research, LLC, priority 2019, published 2022):
# Read-outs that look alike come from different tables or passages of the source.
# Legend:
# [1] = target: T1, Kv1.3 potassium channel (Homo sapiens, UniProt P22001); test: Kv1.3 potassium channel blocker activity, automated whole-cell patch clamp (Patchliner); assay type: cell-based; conditions: CHO-K1 cells stably expressing Kv1.3; whole cell current inhibition; read-out: Kvl.3 IC50
# T1 construct: expressed in transfected cells
# Protocol: This assay is used to evaluate the disclosed compounds' activities as Kv1.3 potassium channel blockers.
# CHO-K1 cells stably expressing Kv1.3 were grown in DMEM containing 10% heat-inactivated FBS, 1 mM Sodium Pyruvate, 2 mM L-Glutamine and G418 (500 μg/ml).
# (§1) All compounds were dissolved in DMSO at 30 mM.
# The currents were evoked by applying 100 ms depolarizing pulses from −90 mV (holding potential) to +40 mV were applied with 0.1 Hz frequency. […] 10 second breaks were used between pulse trains (see Table A below).
# Data were sampled at 10 kHz without filtering. Passive leak currents were subtracted online using a P/4 procedure (HEKA Elektronik Dr. Schulze GmbH). […] Total compound incubation time before the next pulse train was not longer than 10 seconds. Peak current inhibition was observed during compound equilibration.
# [2] = target: T2, hERG channel (Homo sapiens, UniProt Q12809); test: hERG electrophysiology, automated whole-cell patch clamp (Patchliner); assay type: cell-based
# T2 construct: expressed in transfected cells
# Protocol: as §1
# The pulse frequency was 0.3 Hz.
# Data were sampled at 10 kHz without filtering.
# [3] = CHO-K1 cells stably expressing hERG, whole cell current inhibition, read-out: hERG IC50
# T1 sequence (P22001 whole entry): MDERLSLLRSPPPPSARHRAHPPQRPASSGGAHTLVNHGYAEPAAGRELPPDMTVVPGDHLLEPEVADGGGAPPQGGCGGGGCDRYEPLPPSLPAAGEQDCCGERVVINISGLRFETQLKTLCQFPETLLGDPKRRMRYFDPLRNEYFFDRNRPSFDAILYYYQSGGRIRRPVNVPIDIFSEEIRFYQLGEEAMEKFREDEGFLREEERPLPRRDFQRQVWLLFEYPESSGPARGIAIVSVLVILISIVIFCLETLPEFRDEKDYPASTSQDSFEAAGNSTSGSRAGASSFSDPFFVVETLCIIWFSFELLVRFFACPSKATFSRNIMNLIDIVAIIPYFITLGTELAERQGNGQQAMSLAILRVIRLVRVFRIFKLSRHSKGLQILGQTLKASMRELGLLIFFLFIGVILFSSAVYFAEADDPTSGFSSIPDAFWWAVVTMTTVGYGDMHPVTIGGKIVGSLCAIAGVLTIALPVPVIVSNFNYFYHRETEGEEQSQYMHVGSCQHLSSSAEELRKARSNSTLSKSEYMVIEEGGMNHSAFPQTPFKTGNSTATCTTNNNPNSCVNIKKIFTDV
# T2 sequence (Q12809 whole entry): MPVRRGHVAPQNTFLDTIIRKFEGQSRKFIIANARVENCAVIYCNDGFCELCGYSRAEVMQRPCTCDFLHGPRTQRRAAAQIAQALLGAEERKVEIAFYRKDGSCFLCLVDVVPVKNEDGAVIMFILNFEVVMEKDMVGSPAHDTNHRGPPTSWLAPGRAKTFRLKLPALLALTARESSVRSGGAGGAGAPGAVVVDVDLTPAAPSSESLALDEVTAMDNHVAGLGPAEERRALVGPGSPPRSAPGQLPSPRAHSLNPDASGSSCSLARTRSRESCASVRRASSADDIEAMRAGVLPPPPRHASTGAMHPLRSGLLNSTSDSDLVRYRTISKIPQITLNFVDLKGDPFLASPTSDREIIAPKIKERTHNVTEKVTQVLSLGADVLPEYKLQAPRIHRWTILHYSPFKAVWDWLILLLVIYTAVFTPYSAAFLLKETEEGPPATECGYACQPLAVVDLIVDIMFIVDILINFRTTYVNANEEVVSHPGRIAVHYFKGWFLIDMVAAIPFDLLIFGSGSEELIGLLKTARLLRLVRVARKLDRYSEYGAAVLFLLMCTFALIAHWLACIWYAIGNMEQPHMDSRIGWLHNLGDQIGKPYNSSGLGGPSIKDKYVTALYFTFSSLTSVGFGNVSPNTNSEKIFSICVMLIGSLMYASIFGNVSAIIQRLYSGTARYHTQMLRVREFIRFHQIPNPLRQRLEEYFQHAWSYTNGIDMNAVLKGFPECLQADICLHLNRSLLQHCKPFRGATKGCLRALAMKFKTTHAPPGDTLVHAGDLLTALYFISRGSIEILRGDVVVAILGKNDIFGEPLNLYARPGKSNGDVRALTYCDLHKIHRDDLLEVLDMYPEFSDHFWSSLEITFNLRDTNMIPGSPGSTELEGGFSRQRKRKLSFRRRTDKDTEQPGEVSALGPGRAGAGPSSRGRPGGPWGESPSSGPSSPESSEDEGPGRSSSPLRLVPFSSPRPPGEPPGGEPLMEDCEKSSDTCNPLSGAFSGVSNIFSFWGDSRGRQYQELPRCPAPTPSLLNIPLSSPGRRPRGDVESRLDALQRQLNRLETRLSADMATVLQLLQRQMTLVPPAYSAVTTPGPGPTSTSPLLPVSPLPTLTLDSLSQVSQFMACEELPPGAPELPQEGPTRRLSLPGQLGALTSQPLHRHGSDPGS
Structure (SMILES),IC50 [1],"IC50 [2, 3]",IC50 [2],"IC50 ([2]; human, pH 7.4, CHO-K1 cells stably expressing hERG, whole cell current inhibition, read-out: hERG IC50)"
"Oc1cc(Cl)c(Cl)cc1CN1CCC2(CC1)OCCC2O (stereo not drawn) [Compound 26, 8-(4,5-dichloro-2-hydroxybenzyl)-1-oxa-8-azaspiro[4.5]decan-4-ol]",< 1 µM,< 30 µM,–,–
"O=C(C1CCN(Cc2cc(Br)c(Br)cc2O)CC1)N1CCCC1 [Compound 63, (1-(4,5-dibromo-2-hydroxybenzyl)piperidin-4-yl)(pyrrolidin-1-yl)methanone]",< 1 µM,< 30 µM,–,–
"OCC1CCN(Cc2cc(Cl)c(Cl)cc2O)CC1 [Compound 65, 4,5-dichloro-2-((4-(hydroxymethyl)piperidin-1-yl)methyl)phenol]",< 10 µM,< 30 µM,–,–
"Oc1cc(Cl)c(Cl)cc1CN1CCC2(CC1)COC2 [Compound 51, 4,5-dichloro-2-[2-oxa-7-azaspiro [3.5]nonan-7-ylmethyl] phenol]",< 10 µM,< 30 µM,–,–
"Oc1cc(Cl)c(Cl)cc1CN1CCC(O)CC1 [Compound 55, 1-[(4,5-dichloro-2-hydroxyphenyl)methyl] piperidin-4-ol]",< 10 µM,< 30 µM,–,–
"CC(=O)NCC1(CO)CCN(Cc2cc(Cl)c(Cl)cc2O)CC1 [Compound 21, N-([1-[(4,5-dichloro-2-hydroxyphenyl)methyl]-4-(hydroxymethyl)piperidin-4-yl]methyl)acetamide]",< 1 µM,< 30 µM,–,–
"NC(=O)C1CCN(Cc2cc(Cl)c(Cl)cc2O)CC1 [Compound 62, l-(4,5-dichloro-2-hydroxybenzyl) piperidine-4-carboxamide]",< 10 µM,< 30 µM,–,–
"OCC1(O)CCN(Cc2cc(Cl)c(Cl)cc2O)CC1 [Compound 48, 1-[(4,5-dichloro-2-hydroxyphenyl)methyl]-4-(hydroxymethyl)piperidin-4-ol]",< 10 µM,< 30 µM,–,–
"Oc1cc(Cl)c(Cl)cc1CN1CCC(C2CCOCC2)CC1 [Compound 20, 4,5-dichloro-2-[[4-(oxan-4-yl)piperidin-1-yl]methyl]phenol]",< 1 µM,< 30 µM,–,–
"CC1CCN(Cc2cc(Cl)c(Cl)cc2O)CC1 [Compound 64, 4,5-dichloro-2-((4-methylpiperidin-1-yl)methyl)phenol]",< 10 µM,< 30 µM,–,–
"OCC1CCCN(Cc2cc(Cl)c(Cl)cc2O)C1 (stereo not drawn) [Compound 45, 4,5-dichloro-2-[[3-(hydroxymethyl)piperidin-1-yl]methyl]phenol]",< 10 µM,< 30 µM,–,–
"Oc1cc(Cl)c(Cl)cc1CN1CCc2[nH]ncc2C1 [Compound 25, 4,5-dichloro-2-((6,7-dihydro-1H-pyrazolo[4,3-c]pyridin-5(4H)-yl)methyl)phenol]",< 10 µM,< 30 µM,–,–
"NC1(CO)CCN(Cc2cc(Cl)c(Cl)cc2O)CC1 [Compound 14, 2-[[4-amino-4-(hydroxymethyl)piperidin-1-yl]methyl]-4,5-dichlorophenol]",< 1 µM,< 30 µM,–,–
"CC1(CO)CCN(Cc2cc(Cl)c(Cl)cc2O)CC1 [Compound 53, 4,5-dichloro-2-[[4-(hydroxymethyl)-4-methylpiperidin-1-yl]methyl] phenol]",< 10 µM,< 30 µM,–,–
"OCCC1CCN(Cc2cc(Cl)c(Cl)cc2O)CC1 [Compound 39, 4,5-dichloro-2-((4-(2-hydroxyethyl)piperidin-1-yl)methyl)phenol]",< 10 µM,< 30 µM,–,–
"CN(C)C(=O)C1CCN(Cc2cc(Cl)c(Cl)cc2O)CC1 [Compound 66, 1-(4,5-dichloro-2-hydroxybenzyl)-N,N-dimethylpiperidine-4-carboxamide]",< 10 µM,< 30 µM,–,–
"OCC1(c2ccccc2)CCN(Cc2cc(Cl)c(Cl)cc2O)CC1 [Compound 22, 4,5-dichloro-2-[[4-(hydroxymethyl)-4-phenylpiperidin-1-yl]methyl]phenol]",< 1 µM,< 30 µM,–,–

Structure (SMILES),IC50 [1],"IC50 [2, 3]",IC50 [2],"IC50 ([2]; human, pH 7.4, CHO-K1 cells stably expressing hERG, whole cell current inhibition, read-out: hERG IC50)"
"CCC(c1cc(Cl)c(Cl)cc1O)N1CCC(CO)CC1 (stereo not drawn) [Compound 18, 4,5-dichloro-2-[1-[4-(hydroxymethyl)piperidin-1-yl]propyl]phenol]",< 10 µM,< 30 µM,–,–
Oc1cc(Cl)c(Cl)cc1CN1CCC2(CC1)COCC2O (stereo not drawn) [Compound 40],< 1 µM,–,< 30 µM,–
"C[C@H]1C[C@@H](CO)CCN1Cc1cc(Cl)c(Cl)cc1O (relative stereo) [Compound 29, 4,5-dichloro-2-(((2S,4S)-rel-4-(hydroxymethyl)-2-methylpiperidin-1-yl)methyl)phenol]",< 1 µM,< 30 µM,–,–
"NCC1(O)CCN(Cc2cc(Cl)c(Cl)cc2O)CC1 [Compound 9, 4-(aminomethyl)-1-[(4,5-dichloro-2-hydroxyphenyl)methyl]piperidin-4-ol trifluoroacetic acid]",< 1 µM,< 30 µM,–,–
"OCC1CCN(Cc2cc(Cl)c(Cl)cc2O)C1 (stereo not drawn) [Compound 44, 4,5-dichloro-2-[[3-(hydroxymethyl)pyrrolidin-1-yl]methyl]phenol]",< 10 µM,< 30 µM,–,–
"OCC1CN(Cc2cc(Cl)c(Cl)cc2O)CCO1 (stereo not drawn) [Compound 52, 4,5-dichloro-2-[[2-(hydroxymethyl)morpholin-4-yl]methyl]phenol]",< 10 µM,–,–,30 µM
"Oc1cc(Cl)c(Cl)cc1CN1CCC2(CCO2)CC1 [Compound 57, 4,5-dichloro-2-[1-oxa-7-azaspiro[3.5]nonan-7-ylmethyl]phenol]",< 10 µM,< 30 µM,–,–
"CC(C)(O)C1CCN(Cc2cc(Cl)c(Cl)cc2O)CC1 [Compound 50, 4,5-dichloro-2-[[4-(2-hydroxypropan-2-yl)piperidin-1-yl]methyl]phenol]",< 10 µM,< 30 µM,–,–
"Oc1cc(Cl)c(Cl)cc1CN1CCC(c2ccn[nH]2)CC1 [Compound 30, 2-((4-(1H-pyrazol-5-yl)piperidin-1-yl)methyl)-4,5-dichlorophenol]",< 10 µM,< 30 µM,–,–
"NCC1CCN(Cc2cc(Cl)c(Cl)cc2O)CC1 [Compound 61, 2-((4-(aminomethyl)piperidin-1-yl)methyl)-4,5-dichlorophenol]",< 1 µM,< 30 µM,–,–
"Cc1cc(O)c(CN2CCC(CO)CC2)cc1Cl [Compound 19, 4-chloro-2-[[4-(hydroxymethyl)piperidin-1-yl]methyl]-5-methylphenol]",< 1 µM,> 30 µM,–,–
"Oc1cc(Cl)c(Cl)cc1CN1CCC(C2COC2)CC1 [Compound 42, 4,5-dichloro-2-[[4-(oxetan-3-yl)piperidin-1-yl]methyl]phenol]",< 10 µM,< 30 µM,–,–
"OCC1CN(Cc2cc(Cl)c(Cl)cc2O)C1 [Compound 32, 4,5-dichloro-2-[[3-(hydroxymethyl)azetidin-1-yl]methyl]phenol]",< 10 µM,< 30 µM,–,–
"CC(=O)N1CCN(Cc2cc(Cl)c(Cl)cc2O)CC1 [Compound 49, 1-[4-[(4,5-dichloro-2-hydroxyphenyl)methyl]piperazin-1-yl]ethan-1-one]",< 10 µM,< 30 µM,–,–
"NCC1(N)CCN(Cc2cc(Cl)c(Cl)cc2O)CC1 [Compound 3, 2-((4-amino-4-(aminomethyl)piperidin-1-yl)methyl)-4,5-dichlorophenol]",< 1 µM,< 30 µM,–,–
"COCC1CCN(Cc2cc(Cl)c(Cl)cc2O)CC1 [Compound 56, 4,5-dichloro-2-[[4-(methoxymethyl)piperidin-1-yl]methyl]phenol]",< 10 µM,< 30 µM,–,–
